{"source": "patent US20110268789A1", "about": "“USE OF PITUITARY ADENYLATE CYCLASE-ACTIVATING POLYPEPTIDE (PACAP) AND PACAP ANALOGS AS ADJUNCTIVE TREATMENTS WITH ANTICANCER AGENTS” (priority 2008, published 2011)", "key": {"Male C57BL/6 mice": {"tested_on": "Male C57BL/6 mice", "assay": "Cisplatin-induced nephrotoxicity in mice", "format": "in vivo, mouse", "details": "cisplatin 20 mg/kg i.p., FIG. 10", "description": "(§1) Male C57BL/6 mice were given a single intraperitoneal injection of 20 mg/kg of cisplatin. Twenty nanomoles of PACAP38 were given intraperitoneally 1 hour before the injection of cisplatin and additional doses were given at 24 and 48 hours after the initial dose. The control group of mice was injected intraperitoneally with the same volume of saline as for the injections of cisplatin and PACAP38 on the same schedule. The mice were euthanized 24 hours after the final injection of PACAP38. Each value represents the mean plus/minus the standard error of four determinations. ***p<0.001 and **p<0.01 compared to the group treated only with cisplatin.\nas §1, with “PACAP38. TNF-α was extracted from one kidney of each mouse and quantified with an enzyme-linked immunosorbent assay.” for “PACAP38.”\nMale C57BL/6 mice were given a single intraperitoneal injection of 20 mg/kg of cisplatin. Twenty nanomoles of PACAP38 were given intraperitoneally 1 hour before the injection of cisplatin and additional doses were given at 24 and 48 hours after the initial dose. The control group of mice were injected intraperitoneally with the same volume of saline as for the injections of cisplatin and PACAP38 on the same schedule. The mice were euthanized 24 hours after the final injection of PACAP38, and the kidneys were removed and fixed in 10% formalin. The fixed sections were stained with hematoxylin and eosin. The sections of the kidneys from control mice show intact renal tubular epithelial cells and well-preserved brush border membranes. The kidneys from mice treated with cisplatin had extensive tubular damage, tubular dilations, intratubular debris, and intratubular casts. […] Tubular damage was more pronounced in the outer cortex in the cisplatin treated mice. The photomicrographs on the left side were made at a lower magnification (×160) than the photomicrographs on the right side (×320). The results described in FIGS. 5, 6, 7, and 8 were from the same experiment.\nas §1, with “six” for “four”\nas §1, with “The cytoprotective effect of PACAP38 against cisplatin-induced nephrotoxicity was also seen in a common in vivo model. Male” for “Male”, “PACAP38.” for “PACAP38. Each value represents the mean plus/minus the standard error of four determinations. ***p<0.001 and **p<0.01 compared to the group treated only with cisplatin.”"}, "PAC1 receptor": {"target": "T1, PAC1 receptor (Homo sapiens, UniProt P41586)", "T1 sequence (P41586 21-468)": "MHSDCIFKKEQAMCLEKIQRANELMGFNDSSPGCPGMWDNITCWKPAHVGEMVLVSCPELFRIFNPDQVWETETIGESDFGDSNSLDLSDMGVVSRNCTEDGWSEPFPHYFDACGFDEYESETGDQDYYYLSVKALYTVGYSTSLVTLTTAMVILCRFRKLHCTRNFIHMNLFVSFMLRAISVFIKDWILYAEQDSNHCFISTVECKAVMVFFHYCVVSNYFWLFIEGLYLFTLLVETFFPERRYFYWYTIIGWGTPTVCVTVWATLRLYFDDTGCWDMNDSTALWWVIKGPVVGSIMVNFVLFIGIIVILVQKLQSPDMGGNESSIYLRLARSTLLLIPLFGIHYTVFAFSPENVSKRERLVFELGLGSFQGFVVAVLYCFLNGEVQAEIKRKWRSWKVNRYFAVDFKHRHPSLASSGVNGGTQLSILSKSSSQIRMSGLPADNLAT", "details": "cited from earlier work"}, "[1]": {"tested_on": "human erythroleukemia cells", "assay": "Thalidomide-induced apoptotic cell death of erythroleukemia cells", "format": "cell-based", "details": "thalidomide 48 hours, FIG. 20", "description": "The human myeloid leukemia cells were cultured in RPMI 1640 medium supplemented with 10% non-inactivated fetal bovine serum. The effects of PACAP38, [D-Ser^2]PACAP38 and VIP on apoptotic cell death was assessed by the quantitative determination of cytoplasmic histone-associated DNA-fragmentation (mono- and oligonucleosomes) after exposure to thalidomide for 48 hours. Each value represents the mean plus/minus the standard deviation of four determinations. **p<0.01 and *p<0.05 compared to the thalidomide-treated (control) cells."}}}
{"substance": "VIP", "values": [{"measurement": "relative potency as cytoprotectants against cisplatin-induced impairment of kidney function (serum creatinine)", "setting": "Male C57BL/6 mice", "result": "less potent"}, {"measurement": "affinity for the PAC1 receptor relative to PACAP", "setting": "PAC1 receptor", "result": "1,000 times less"}, {"measurement": "effect on thalidomide-induced apoptotic cell death", "setting": "[1]", "result": "dose-dependent enhancement"}]}
